Laboratory results reported in ChEMBL document CHEMBL4651402, “Screening of ~5500 FDA-approved drugs and clinical candidates for anti-SARS-CoV-2 activity” (2021).
Peptide text beside a SMILES is read from it.

System: SARS-CoV-2
Test: microbe, parasite or virus in culture
Details: Severe acute respiratory syndrome coronavirus 2, Vero C1008, 48 h

Row | SMILES | IC50 [µM] | IC50 (read-out: pIC50 (converted)) [µM]
1 | CNC(=O)c1c(I)c(C(=O)NCC(=O)Nc2c(I)c(C(=O)O)c(I)c(C(=O)NCCO)c2I)c(I)c(N(C)C(C)=O)c1I [IOXAGLIC ACID] | > 20 | > 20
2 | CC(C)NC[C@@H](C(=O)N1CCN(c2ncnc3c2[C@H](C)C[C@H]3O)CC1)c1ccc(Cl)cc1 [IPATASERTIB] | > 20 | > 20
3 | Nc1c2c(nc3c1CCC3)CCCC2 [IPIDACRINE] | > 20 | > 20
4 | OC[C@H]1O[C@@H](c2ccc(F)c(Cc3cc4ccccc4s3)c2)[C@H](O)[C@@H](O)[C@@H]1O [IPRAGLIFLOZIN] | > 20 | > 20
5 | CC(C)Oc1ccc2c(=O)c(-c3ccccc3)coc2c1 [IPRIFLAVONE] | > 20 | > 20
6 | CN(C)CCCn1c2c(c3ccccc31)CCCCCC2 [IPRINDOLE] | > 20 | > 20
7 | CC(C)CCCC(C)NC(C)C (stereo not drawn) [IPROHEPTINE] | > 20 | > 20
8 | CC(C)NNC(=O)c1ccncc1 [IPRONIAZID] | > 20 | > 20
9 | CC(C)c1ncc([N+](=O)[O-])n1C [IPRONIDAZOLE] | > 20 | > 20
10 | O=C1c2ccccc2S(=O)(=O)N1CCCCN1CCN(c2ncccn2)CC1 [IPSAPIRONE] | > 20 | > 20
11 | CCCCC1=NC2(CCCC2)C(=O)N1Cc1ccc(-c2ccccc2-c2nnn[nH]2)cc1 [IRBESARTAN] | > 20 | > 20
12 | O=C1NCCN1CCN1CCN([C@@H]2C[C@@H](c3ccc(F)cc3)c3ccccc32)CC1 [IRINDALONE] | > 20 | > 20
13 | Nc1nc(N)nc(-c2cc(Cl)ccc2Cl)n1 [IRSOGLADINE] | > 20 | > 20
14 | Cc1nc2cc(C(c3ccccc3)n3ccnc3)ccc2[nH]1 (stereo not drawn) [IRTEMAZOLE] | > 20 | > 20
15 | CC(C)NCC(O)COc1ccccc1-n1cccc1 (stereo not drawn) [ISAMOLTAN] | > 20 | > 20
16 | Nc1nc(=O)c2sc(=O)n([C@@H]3O[C@H](CO)[C@@H](O)[C@H]3O)c2[nH]1 [ISATORIBINE] | > 25.1 | > 25.1
17 | CC(C)Nc1ncccn1 [ISAXONINE] | > 20 | > 20
18 | O=C(O)CCCC/C=C(/c1ccccc1)c1cccnc1 [ISBOGREL] | > 20 | > 20
19 | COc1cc2occc2c2oc(=O)ccc12 [ISOBERGAPTENE] | > 20 | > 20
20 | CC(C)COC(=O)c1ccc(N)cc1 [ISOBUTAMBEN] | > 20 | > 20
21 | CC(C)Cn1c(=O)n(C)c(=O)c2nc[nH]c21 [ISOBUTYLMETHYLXANTHINE] | > 20 | > 20
22 | CC(C)C(N)=O [ISOBUTYRAMIDE] | > 20 | > 20
23 | Cc1cc(C(=O)NNCc2ccccc2)no1 [ISOCARBOXAZID] | > 20 | > 20
24 | Clc1ccc(C(Cn2ccnc2)OCc2c(Cl)cccc2Cl)c(Cl)c1 (stereo not drawn) [ISOCONAZOLE] | > 20 | > 20
25 | COc1ccc2c(c1O)-c1c(OC)c(OC)cc3c1[C@H](C2)N(C)CC3 [ISOCORYDINE] | > 20 | > 20

Row | SMILES | IC50 [µM] | IC50 (read-out: pIC50 (converted)) [µM]
26 | CC(=O)OCC(=O)[C@@]1(O)CC[C@H]2[C@@H]3CCC4=CC(=O)C=C[C@]4(C)[C@@]3(F)[C@@H](O)C[C@@]21C [ISOFLUPREDONE ACETATE] | > 20 | > 20
27 | O=C(O)C1=CCNCC1 [ISOGUVACINE] | > 20 | > 20
28 | C=C1CCC2C(CC2(C)C)C(=O)CCC1O (stereo not drawn) [ISOKOBUSONE] | > 20 | > 20
29 | O=C(/C=C/c1ccc(O)cc1)c1ccc(O)cc1O [ISOLIQUIRITIGENIN] | > 20 | > 20
30 | CCC(=O)C(c1ccccc1)(c1ccccc1)C(C)CN(C)C (stereo not drawn) [ISOMETHADONE] | > 20 | > 20
31 | CNC(C)CCC=C(C)C (stereo not drawn) [ISOMETHEPTENE] | > 20 | > 20
32 | NNC(=O)c1ccncc1 [ISONIAZID] | > 20 | > 20
33 | COc1c2ccoc2c(OC)c2oc(=O)ccc12 [ISOPIMPINELLIN] | > 20 | > 20
34 | CC(C)[N+](C)(CCC(C(N)=O)(c1ccccc1)c1ccccc1)C(C)C [ISOPROPAMIDE] | > 20 | > 20
35 | CC(C)NCC(O)c1ccc(O)c(O)c1 (stereo not drawn) [ISOPROTERENOL] | > 20 | > 20
36 | O=[N+]([O-])O[C@@H]1CO[C@H]2[C@@H]1OC[C@@H]2O [ISOSORBIDE MONONITRATE] | > 20 | > 20
37 | O[C@@H]1CO[C@H]2[C@@H]1OC[C@@H]2O [ISOSORBIDE] | > 20 | > 20
38 | CC(=O)N[C@@H](CC(=O)O)C(=O)N[C@@H](CCC(=O)O)C(=O)O [ISOSPAGLUMIC ACID] (Ac-Asp-Glu-OH) | > 20 | > 20
39 | Cc1ccnc2c1CCCC2C(N)=S (stereo not drawn) [ISOTIQUIMIDE] | > 20 | > 20
40 | CC(C)CC(N)=O [ISOVALERAMIDE] | > 20 | > 20
41 | Cc1cc(NC(=O)C2=C(O)c3ccccc3S(=O)(=O)N2C)no1 [ISOXICAM] | > 20 | > 20
42 | CC(COc1ccccc1)NC(C)C(O)c1ccc(O)cc1 (stereo not drawn) [ISOXSUPRINE] | > 20 | > 20
43 | Cc1ccc(C(=O)N(CCCN)[C@@H](c2nc3cc(Cl)ccc3c(=O)n2Cc2ccccc2)C(C)C)cc1 [ISPINESIB] | > 20 | > 20
44 | CN[C@@H](C)C/C=C/c1cncc(OC(C)C)c1 [ISPRONICLINE] | > 20 | > 20
45 | COC(=O)C1=C(C)NC(C)=C(C(=O)OC(C)C)C1c1cccc2nonc12 (stereo not drawn) [ISRADIPINE] | > 20 | > 20
46 | C[C@]12CCC(=NOCCN)C[C@@H]1C(=O)C[C@@H]1[C@@H]2CC[C@]2(C)C(=O)CC[C@@H]12 [ISTAROXIME] | > 20 | > 20
47 | CCn1c(=O)c2c(nc(/C=C/c3ccc(OC)c(OC)c3)n2C)n(CC)c1=O [ISTRADEFYLLINE] | > 20 | > 20
48 | N#CCC1(n2cc(-c3ncnc4[nH]ccc34)cn2)CN(C2CCN(C(=O)c3ccnc(C(F)(F)F)c3F)CC2)C1 [ITACITINIB] | > 20 | > 20
49 | COc1ccc(-c2nc(C(F)(F)F)sc2-c2ccc(OC)cc2)cc1 [ITAZIGREL] | > 20 | > 20
50 | COc1ccc(C(=O)NCc2ccc(OCCN(C)C)cc2)cc1OC [ITOPRIDE] | > 20 | > 20

Row | SMILES | IC50 [µM] | IC50 (read-out: pIC50 (converted)) [µM]
51 | COc1cc2c(cc1OC)CC(=O)N(CCCN(C)C[C@H]1Cc3cc(OC)c(OC)cc31)CC2 [IVABRADINE] | > 20 | > 20
52 | COc1ccc(-c2c(C#N)c(C(=O)NN3CCCCC3)nn2-c2ccc(Cl)cc2Cl)cc1 [JHU-75528] | > 20 | > 20
53 | C[N+](C)(Cc1ccc(NC(=O)c2ccc(Cl)c(Cl)c2)cc1)C1CCOCC1 [JNJ-17166864 CATION] | > 20 | > 20
54 | NS(=O)(=O)NC[C@H]1COc2cc(Cl)ccc2O1 [JNJ-26489112] | > 20 | > 20
55 | Fc1ccc(CN2CCC(Nc3ccc(C(F)(F)F)nn3)CC2)cc1F [JNJ-37822681] | > 20 | > 20
56 | O=C(c1ccc(Oc2ccc(F)cc2)nc1)N1CCCN(C2CCC2)CC1 [JNJ-39220675] | > 20 | > 20
57 | CN(C)C(=O)CCn1nc(Nc2ccc3c(c2)OC(F)(F)O3)nc1-c1ccncc1 [JNJ-39393406] | > 20 | > 20
58 | CCCCn1ccc(N2CCC(c3ccccc3)CC2)c(Cl)c1=O [JNJ-40411813] | > 20 | > 20
59 | O=C(CNC(=O)c1cccc(C(F)(F)F)c1)NC1CN([C@H]2CC[C@@](O)(c3cncs3)CC2)C1 [JNJ-41443532] | > 20 | > 20
60 | O=C(Nc1cnccc1Cl)N1CCN(Cc2ccc3c(c2)OC(F)(F)O3)CC1 [JNJ-42165279] | > 20 | > 20
61 | COCC(=O)Nc1cc(COc2ccc(NC(=O)Nc3cc(C(C)(C)C)nn3-c3ccc(C)cc3)c3ccccc23)ccn1 [JNJ-49095397] | > 20 | > 20
62 | C[C@@H]1c2nnn(-c3ncc(F)cn3)c2CCN1C(=O)c1cccc(C(F)(F)F)c1Cl [JNJ-54175446] | > 20 | > 20
63 | CO[C@@H]1[C@@H](O[C@@H]2O[C@H](C)[C@@H](O[C@H]3C[C@@](C)(O)[C@@H](OC(=O)CC(C)C)[C@H](C)O3)[C@H](N(C)C)[C@H]2O)[C@@H](CC=O)C[C@@H](C)[C@@H](O)/C=C/C=C/C[C@@H](C)OC(=O)C[C@H]1OC(C)=O [JOSAMYCIN] | > 20 | > 20
64 | O=C1C=CC(=O)c2c(O)cccc21 [JUGLONE] | > 20 | > 20
65 | O=c1c(O)c(-c2ccc(O)cc2)oc2cc(O)cc(O)c12 [KAEMPFEROL] | > 20 | > 20
66 | C=C(C)[C@H]1CN[C@H](C(=O)O)[C@H]1CC(=O)O [KAINIC ACID] | > 20 | > 20
67 | NC[C@H]1O[C@H](O[C@H]2[C@H](O)[C@@H](O[C@H]3O[C@H](CO)[C@@H](O)[C@H](N)[C@H]3O)[C@H](N)C[C@@H]2N)[C@H](O)[C@@H](O)[C@@H]1O [KANAMYCIN] | > 20 | > 20
68 | CNC1(c2ccccc2Cl)CCCCC1=O (stereo not drawn) [KETAMINE] | > 20 | > 20
69 | O=C(c1ccc(F)cc1)C1CCN(CCn2c(=O)[nH]c3ccccc3c2=O)CC1 [KETANSERIN] | > 20 | > 20
70 | C[C@H]1[C@H]2C(=O)c3ccc(O)cc3[C@]1(C)CCN2CC1CC1 [KETAZOCINE] | > 20 | > 20
71 | CCC(=O)C1(c2cccc(O)c2)CCN(C)CC1 [KETOBEMIDONE] | > 20 | > 20
72 | CC(C(=O)O)c1cccc(C(=O)c2ccccc2)c1 (stereo not drawn) [KETOPROFEN] | > 20 | > 20
73 | O=C(c1ccccc1)c1ccc2n1CCC2C(=O)O (stereo not drawn) [KETOROLAC] | > 20 | > 20
74 | CN1CCC(=C2c3ccccc3CC(=O)c3sccc32)CC1 [KETOTIFEN] | > 20 | > 20
